Here are results for 14 compounds from ChEMBL document CHEMBL2429780, “Synthesis, antimicrobial and cytotoxic activity of 2-azetidinone derivatives of pyridyl benzimidazoles” (Med Chem Res, 2013).

≈ marks a conversion by molar mass, not a printed value.

The subject of one assay is Streptococcus pyogenes. The assay is described as follows: Antibacterial activity against Streptococcus pyogenes MTCC 442 assessed as growth inhibition after 24 hrs by broth dilution assay. The format is functional. Conditions: MTCC 442, 24 h. (Broth dilution looks for growth in wells or tubes with falling amounts of substance.)
The test system of another assay is Pseudomonas aeruginosa. Description: Antibacterial activity against Pseudomonas aeruginosa MTCC 1688 assessed as growth inhibition after 24 hrs by broth dilution assay. The assay is classed as functional. As to conditions: MTCC 1688, 24 h.
Another assay relates to Staphylococcus aureus. The assay is described as follows: Antibacterial activity against Staphylococcus aureus MTCC 96 assessed as growth inhibition after 24 hrs by broth dilution assay. Conditions: MTCC 96, 24 h. The assay is classed as functional.
Another assay concerns Aspergillus clavatus. Description: Antifungal activity against Aspergillus clavatus assessed as growth inhibition after 48 hrs by broth dilution assay. The assay is classed as functional.
The next assay has as its system HeLa. Description: Cytotoxicity against human HeLa cells assessed as growth inhibition after 24 to 72 hrs by MTT assay. The format is cell-based.
The next assay has as its system Candida albicans. The assay is described as follows: Antifungal activity against Candida albicans assessed as growth inhibition after 48 hrs by broth dilution assay. The assay is classed as functional.
A further assay has as its system Escherichia coli. Description: Antibacterial activity against Escherichia coli MTCC 443 assessed as growth inhibition after 24 hrs by broth dilution assay. The format is functional. Conditions: MTCC 443, 24 h.
The next assay deals with Aspergillus niger. Description: Antifungal activity against Aspergillus niger assessed as growth inhibition after 48 hrs by broth dilution assay. The assay is classed as functional.

By MIC is commonly meant the smallest concentration in the dilution series that meets the test's criterion for growth inhibition. For the compound `N#Cc1c(-c2ccc([N+](=O)[O-])cc2)cc(-c2nc3ccccc3[nH]2)nc1/N=C/c1ccccc1`, the MIC with Streptococcus pyogenes and in the assay with Pseudomonas aeruginosa was 1000 µg/mL (≈ 2250 µM) throughout.

`N#Cc1c(-c2ccccc2Cl)cc(-c2nc3ccccc3[nH]2)nc1/N=C/c1ccccc1`: the MIC in the assay with Streptococcus pyogenes and in the assay with Pseudomonas aeruginosa was 1000 µg/mL (≈ 2300 µM) in each case.

One may read the IC50 as the concentration that gives 50% inhibition. Consider `COc1cccc(-c2cc(-c3nc4ccccc4[nH]3)nc(N3C(=O)C(Cl)C3c3ccccc3)c2C#N)c1` (stereo unspecified), for which the MIC in the assay on Staphylococcus aureus came out at 500 µg/mL (≈ 988 µM); with Aspergillus clavatus, 250 µg/mL (≈ 494 µM); in the assay with Candida albicans it was 500 µg/mL (≈ 988 µM); in the assay on Escherichia coli, 250 µg/mL (≈ 494 µM); in the assay on Aspergillus niger it was 500 µg/mL (≈ 988 µM); in the assay with Streptococcus pyogenes, 500 µg/mL (≈ 988 µM). Moreover, in the assay on Pseudomonas aeruginosa, the MIC came to 500 µg/mL (≈ 988 µM). Further, the IC50 with HeLa is 64 µM.

As for `N#Cc1c(-c2ccccc2Cl)cc(-c2nc3ccccc3[nH]2)nc1N1C(=O)C(Cl)C1c1ccccc1` (stereo unspecified), the MIC with Staphylococcus aureus, in the assay with Aspergillus clavatus, in the assay with Candida albicans, with Escherichia coli, in the assay on Aspergillus niger and in the assay on Streptococcus pyogenes was 100 µg/mL (≈ 196 µM) in each case. The MIC with Pseudomonas aeruginosa is 250 µg/mL (≈ 490 µM). Further, in the assay with HeLa, the IC50 was above 100 µM.

On to `N#Cc1c(-c2cccc([N+](=O)[O-])c2)cc(-c2nc3ccccc3[nH]2)nc1N1C(=O)C(Cl)C1c1ccccc1` (stereo unspecified), for which the MIC was found to be 25 µg/mL (≈ 48 µM) with Staphylococcus aureus; 50 µg/mL (≈ 96 µM) with Aspergillus clavatus; 50 µg/mL (≈ 96 µM) with Candida albicans; 50 µg/mL (≈ 96 µM) in the assay with Escherichia coli; 50 µg/mL (≈ 96 µM) with Aspergillus niger; 50 µg/mL (≈ 96 µM) in the assay with Streptococcus pyogenes. Further, the MIC in the assay on Pseudomonas aeruginosa amounted to 50 µg/mL (≈ 96 µM). In addition, the IC50 in the assay on HeLa is above 100 µM.

For the compound `N#Cc1c(-c2ccc([N+](=O)[O-])cc2)cc(-c2nc3ccccc3[nH]2)nc1N`, the minimal inhibitory concentration (MIC) in the assay with Staphylococcus aureus, in the assay with Streptococcus pyogenes and in the assay on Pseudomonas aeruginosa was at least 1000 µg/mL in each case.

With `N#Cc1c(-c2ccc([N+](=O)[O-])cc2)cc(-c2nc3ccccc3[nH]2)nc1N1C(=O)C(Cl)C1c1ccccc1` (stereo unspecified), the minimal inhibitory concentration (MIC) turned out to be 12.5 µg/mL (≈ 24 µM) in the assay on Staphylococcus aureus; 100 µg/mL (≈ 192 µM) in the assay on Aspergillus clavatus; 100 µg/mL (≈ 192 µM) with Candida albicans; 25 µg/mL (≈ 48 µM) in the assay on Escherichia coli; 100 µg/mL (≈ 192 µM) in the assay on Aspergillus niger; 25 µg/mL (≈ 48 µM) in the assay on Streptococcus pyogenes. The MIC with Pseudomonas aeruginosa turned out to be 12.5 µg/mL (≈ 24 µM). Moreover, the IC50 in the assay on HeLa was above 100 µM.

In the case of `N#Cc1c(-c2ccc(O)cc2)cc(-c2nc3ccccc3[nH]2)nc1N1C(=O)C(Cl)C1c1ccccc1` (stereo unspecified), the MIC in the assay on Staphylococcus aureus was 250 µg/mL (≈ 508 µM); in the assay on Aspergillus clavatus, 250 µg/mL (≈ 508 µM); in the assay on Candida albicans, 500 µg/mL (≈ 1020 µM); with Escherichia coli it was 250 µg/mL (≈ 508 µM); in the assay on Aspergillus niger, 500 µg/mL (≈ 1020 µM); in the assay on Streptococcus pyogenes, 250 µg/mL (≈ 508 µM). The MIC in the assay on Pseudomonas aeruginosa was 250 µg/mL (≈ 508 µM). The IC50 in the assay with HeLa worked out at 67.4 µM.

As to `N#Cc1c(-c2cccc([N+](=O)[O-])c2)cc(-c2nc3ccccc3[nH]2)nc1N`, the MIC with Staphylococcus aureus, in the assay with Aspergillus clavatus, in the assay on Candida albicans, in the assay with Aspergillus niger, in the assay with Streptococcus pyogenes and with Pseudomonas aeruginosa was at least 1000 µg/mL throughout.

Turning to `N#Cc1c(-c2cccc(Cl)c2)cc(-c2nc3ccccc3[nH]2)nc1N`, the minimal inhibitory concentration (MIC) in the assay with Staphylococcus aureus, in the assay with Aspergillus clavatus, with Candida albicans, with Aspergillus niger, in the assay on Streptococcus pyogenes and with Pseudomonas aeruginosa was at least 1000 µg/mL throughout.

Consider `N#Cc1c(-c2ccc(Cl)cc2)cc(-c2nc3ccccc3[nH]2)nc1N`, for which the MIC with Staphylococcus aureus, in the assay with Streptococcus pyogenes and in the assay on Pseudomonas aeruginosa was at least 1000 µg/mL throughout.

`N#Cc1c(-c2ccc(Cl)cc2)cc(-c2nc3ccccc3[nH]2)nc1/N=C/c1ccccc1`: the MIC in the assay with Streptococcus pyogenes and in the assay on Pseudomonas aeruginosa was 1000 µg/mL (≈ 2300 µM) each time.

Take `O=C(N[C@H](CO)[C@H](O)c1ccc([N+](=O)[O-])cc1)C(Cl)Cl` [CHLORAMPHENICOL]: the MIC with Staphylococcus aureus, in the assay with Escherichia coli, in the assay with Streptococcus pyogenes and in the assay with Pseudomonas aeruginosa was 50 µg/mL (≈ 155 µM) each time.

As to `CC(=O)N1CCN(c2ccc(OCC3COC(Cn4ccnc4)(c4ccc(Cl)cc4Cl)O3)cc2)CC1` (stereo unspecified) [KETOCONAZOLE], the MIC with Aspergillus clavatus, in the assay on Candida albicans and in the assay on Aspergillus niger was 50 µg/mL (≈ 94.1 µM) in each case.
